From ChEMBL document CHEMBL1201862, “PubChem BioAssay data set” (2004)
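Step 1: Grow cells in 96-well plates. Step 2: Expose to compound for 48 hours at 5 concentrations. Step 3: Interpolate endpoints linearly; if unreached, use highest concentration. The concentration for 50% growth inhibition is given as GI50.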 The source made the active and inactive calls. No stated cut-off is given here; in the data, active = GI50 up to about 1.1 µM and inactive = higher.

Experiments:
Test in all cases: growth of human tumour cells (NCI), 48 h
786-0 = test system: 786-0
A498 = test system: A498
A549 = test system: A549
ACHN = test system: ACHN
BT-549 = test system: BT-549
CAKI-1 = test system: CAKI-1
COLO 205 = test system: COLO 205
DU-145 = test system: DU-145
EKVX = test system: EKVX
HCT-116 = test system: HCT-116
HCT-15 = test system: HCT-15
HL-60 = test system: HL-60
HOP-62 = test system: HOP-62
HOP-92 = test system: HOP-92
HT-29 = test system: HT-29
Hs-578T = test system: Hs-578T
IGROV-1 = test system: IGROV-1
K562 = test system: K562
KM12 = test system: KM12
LOX IMVI = test system: LOX IMVI
M14 = test system: M14
MCF7 = test system: MCF7
MDA-MB-231 = test system: MDA-MB-231
MDA-MB-435 = test system: MDA-MB-435
MDA-N = test system: MDA-N
MOLT-4 = test system: MOLT-4
Malme-3M = test system: Malme-3M
NCI-H226 = test system: NCI-H226
NCI-H23 = test system: NCI-H23
NCI-H460 = test system: NCI-H460
NCI-H522 = test system: NCI-H522
NCI/ADR-RES = test system: NCI/ADR-RES
OVCAR-3 = test system: OVCAR-3
OVCAR-4 = test system: OVCAR-4
OVCAR-5 = test system: OVCAR-5
OVCAR-8 = test system: OVCAR-8
PC-3 = test system: PC-3
RPMI-8226 = test system: RPMI-8226
RXF 393 = test system: RXF 393
SF-268 = test system: SF-268
SF-295 = test system: SF-295
SF-539 = test system: SF-539
SK-MEL-28 = test system: SK-MEL-28
SK-MEL-2 = test system: SK-MEL-2
SK-MEL-5 = test system: SK-MEL-5
SK-OV-3 = test system: SK-OV-3
SN12C = test system: SN12C
SNB-19 = test system: SNB-19
SNB-75 = test system: SNB-75
SR = test system: SR
SW-620 = test system: SW-620
T47D = test system: T47D
TK-10 = test system: TK-10
U-251 = test system: U-251
UACC-257 = test system: UACC-257
UACC-62 = test system: UACC-62
UO-31 = test system: UO-31
CCRF-CEM = test system: CCRF-CEM
HCC 2998 = test system: HCC 2998

Measured: GI50

CC(=O)Nc1nc(O)c2nc(C=O)cnc2n1
inactive: 786-0 > 100 µM | A498 > 100 µM | A549 > 100 µM | ACHN > 100 µM | BT-549 > 100 µM | CAKI-1 > 100 µM | COLO 205 > 100 µM | DU-145 > 100 µM | EKVX > 100 µM | HCT-116 > 100 µM | HL-60 > 100 µM | HOP-62 > 100 µM | HOP-92 > 100 µM | HT-29 > 100 µM | Hs-578T > 100 µM | IGROV-1 > 100 µM | K562 > 100 µM | KM12 > 100 µM | LOX IMVI > 100 µM | M14 > 100 µM | MCF7 > 100 µM | MDA-MB-231 > 100 µM | MDA-MB-435 > 100 µM | MDA-N > 100 µM | MOLT-4 > 100 µM | Malme-3M > 100 µM | NCI-H226 > 100 µM | NCI-H23 > 100 µM | NCI-H460 > 100 µM | NCI-H522 > 100 µM | NCI/ADR-RES > 100 µM | OVCAR-3 > 100 µM | OVCAR-4 > 100 µM | OVCAR-5 > 100 µM | OVCAR-8 > 100 µM | PC-3 > 100 µM | RPMI-8226 > 100 µM | RXF 393 > 100 µM | SF-268 > 100 µM | SF-295 > 100 µM | SF-539 > 100 µM | SK-MEL-28 > 100 µM | SK-MEL-2 > 100 µM | SK-MEL-5 > 100 µM | SK-OV-3 > 100 µM | SN12C > 100 µM | SNB-19 > 100 µM | SNB-75 > 100 µM | SR > 100 µM | SW-620 > 100 µM | T47D > 100 µM | TK-10 > 100 µM | U-251 > 100 µM | UACC-257 > 100 µM | UACC-62 > 100 µM | UO-31 > 100 µM
> 100 µM: HCT-15

NC(=O)C(c1ccccc1)N1OC2C(=O)N(Cc3ccccc3)C(=O)C2C1c1cccc(Oc2ccc(Cl)cc2)c1 (stereo not drawn)
inactive: 786-0 21.3 µM | A498 52.1 µM | A549 31.4 µM | ACHN 20.4 µM | BT-549 34 µM | CAKI-1 14.9 µM | CCRF-CEM 36.1 µM | COLO 205 17.5 µM | DU-145 33.1 µM | EKVX 27.1 µM | HCT-116 19.4 µM | HL-60 23.4 µM | HOP-62 42.1 µM | HOP-92 33 µM | HT-29 18.2 µM | Hs-578T 49.1 µM | IGROV-1 36.5 µM | K562 26 µM | KM12 28.3 µM | LOX IMVI 15.7 µM | M14 23.6 µM | MCF7 28 µM | MDA-MB-231 37.1 µM | MDA-MB-435 27 µM | MDA-N 20.7 µM | MOLT-4 32.8 µM | Malme-3M 42.9 µM | NCI-H226 26.8 µM | NCI-H23 36.2 µM | NCI-H460 28.8 µM | NCI-H522 28.7 µM | NCI/ADR-RES 34 µM | OVCAR-3 19.9 µM | OVCAR-4 27.8 µM | OVCAR-5 32.1 µM | OVCAR-8 39.7 µM | PC-3 33.4 µM | RXF 393 17.5 µM | SF-268 35.8 µM | SF-295 38.5 µM | SF-539 18.7 µM | SK-MEL-28 79.3 µM | SK-MEL-2 22.2 µM | SK-MEL-5 15.9 µM | SK-OV-3 60.7 µM | SN12C 16.4 µM | SNB-19 37.1 µM | SNB-75 31.7 µM | SR 22.7 µM | SW-620 48.8 µM | T47D 32.1 µM | TK-10 30.9 µM | U-251 28.2 µM | UACC-257 36.6 µM | UACC-62 15.8 µM | UO-31 2.73 µM
30.4 µM: HCT-15

COc1ccc(/C(=N/N=c2[nH]c3ccccc3[nH]2)C(=O)O)cc1
inactive: 786-0 > 100 µM | A498 > 100 µM | A549 > 100 µM | ACHN > 100 µM | BT-549 > 100 µM | CAKI-1 > 100 µM | CCRF-CEM > 100 µM | COLO 205 > 100 µM | DU-145 > 100 µM | EKVX > 100 µM | HCC 2998 > 100 µM | HCT-116 > 100 µM | HL-60 > 100 µM | HOP-62 > 100 µM | HOP-92 > 100 µM | HT-29 > 100 µM | Hs-578T > 100 µM | IGROV-1 > 100 µM | K562 > 100 µM | KM12 > 100 µM | LOX IMVI > 100 µM | M14 > 100 µM | MCF7 > 100 µM | MDA-MB-231 > 100 µM | MDA-MB-435 > 100 µM | MDA-N > 100 µM | MOLT-4 > 100 µM | Malme-3M > 100 µM | NCI-H226 > 100 µM | NCI-H23 > 100 µM | NCI-H460 > 100 µM | NCI-H522 > 100 µM | NCI/ADR-RES > 100 µM | OVCAR-3 > 100 µM | OVCAR-4 > 100 µM | OVCAR-5 > 100 µM | OVCAR-8 > 100 µM | PC-3 > 100 µM | RPMI-8226 > 100 µM | SF-268 > 100 µM | SF-295 > 100 µM | SF-539 > 100 µM | SK-MEL-28 > 100 µM | SK-MEL-2 > 100 µM | SK-MEL-5 > 100 µM | SK-OV-3 > 100 µM | SN12C > 100 µM | SNB-19 > 100 µM | SNB-75 > 100 µM | SR > 100 µM | SW-620 > 100 µM | T47D > 100 µM | TK-10 > 100 µM | U-251 > 100 µM | UACC-257 > 100 µM | UACC-62 > 100 µM | UO-31 > 100 µM
> 100 µM: HCT-15

CN(C)CCCNCc1cccc2ccccc12
> 100 µM: HCT-15
inactive: 786-0 > 100 µM | A498 > 100 µM | A549 > 100 µM | ACHN > 100 µM | BT-549 > 100 µM | CCRF-CEM > 100 µM | COLO 205 > 100 µM | DU-145 > 100 µM | EKVX > 100 µM | HCT-116 > 100 µM | HL-60 > 100 µM | HOP-62 > 100 µM | HOP-92 78.3 µM | HT-29 > 100 µM | Hs-578T > 100 µM | IGROV-1 > 100 µM | K562 > 100 µM | KM12 > 100 µM | LOX IMVI > 100 µM | M14 66.5 µM | MCF7 > 100 µM | MDA-MB-231 > 100 µM | MDA-MB-435 > 100 µM | MDA-N > 100 µM | MOLT-4 > 100 µM | Malme-3M > 100 µM | NCI-H226 > 100 µM | NCI-H23 > 100 µM | NCI-H460 > 100 µM | NCI/ADR-RES > 100 µM | OVCAR-3 > 100 µM | OVCAR-4 > 100 µM | OVCAR-5 > 100 µM | OVCAR-8 > 100 µM | PC-3 > 100 µM | RPMI-8226 > 100 µM | RXF 393 > 100 µM | SF-268 > 100 µM | SF-295 > 100 µM | SF-539 > 100 µM | SK-MEL-28 > 100 µM | SK-MEL-2 > 100 µM | SK-MEL-5 > 100 µM | SK-OV-3 > 100 µM | SN12C > 100 µM | SNB-19 > 100 µM | SNB-75 > 100 µM | SR 25.6 µM | SW-620 > 100 µM | T47D > 100 µM | TK-10 > 100 µM | U-251 > 100 µM | UACC-257 > 100 µM | UACC-62 > 100 µM | UO-31 > 100 µM

Cc1ccc2nc(-c3ccc(-n4c(C)nc(=O)c(-c5ccc(F)cc5)c4C)cc3)sc2c1
inactive: 786-0 13.6 µM | A498 18.2 µM | A549 14.7 µM | ACHN 14.6 µM | BT-549 14.5 µM | CAKI-1 17.8 µM | CCRF-CEM 13 µM | COLO 205 4.97 µM | DU-145 15.9 µM | EKVX 13.5 µM | HCT-116 11.9 µM | HL-60 11.4 µM | HOP-62 22 µM | HOP-92 17.6 µM | HT-29 13.2 µM | Hs-578T 25.9 µM | IGROV-1 14.2 µM | K562 10.8 µM | KM12 17.3 µM | LOX IMVI 22.7 µM | M14 12.7 µM | MCF7 13.3 µM | MDA-MB-231 14.1 µM | MDA-MB-435 15.1 µM | MDA-N 14.4 µM | MOLT-4 7 µM | Malme-3M 14.5 µM | NCI-H226 17.5 µM | NCI-H23 16.3 µM | NCI-H522 15.1 µM | NCI/ADR-RES 15 µM | OVCAR-3 13.9 µM | OVCAR-4 17.6 µM | OVCAR-5 19.3 µM | OVCAR-8 17.5 µM | PC-3 12.4 µM | RPMI-8226 4.06 µM | RXF 393 9.75 µM | SF-268 20.3 µM | SF-295 17.5 µM | SK-MEL-28 20.8 µM | SK-MEL-2 19.1 µM | SK-MEL-5 10.8 µM | SK-OV-3 15.1 µM | SN12C 15 µM | SNB-19 14.8 µM | SNB-75 13.7 µM | SR 6.12 µM | SW-620 21.6 µM | T47D 3.3 µM | TK-10 16.1 µM | U-251 15.5 µM | UACC-257 16.1 µM | UO-31 15 µM
12.4 µM: HCT-15
